Eleven compounds from US20210317140A1, “Heterocyclic Compounds and Methods of Use” (MEDIVATION TECHNOLOGIES, INC, priority 2013, published 2021) can be followed below.

One experiment addresses T1, TEC (Homo sapiens, UniProt P42680).
T1 construct: purchased Reaction Biology Corporation
T1 sequence (P42680 1-631): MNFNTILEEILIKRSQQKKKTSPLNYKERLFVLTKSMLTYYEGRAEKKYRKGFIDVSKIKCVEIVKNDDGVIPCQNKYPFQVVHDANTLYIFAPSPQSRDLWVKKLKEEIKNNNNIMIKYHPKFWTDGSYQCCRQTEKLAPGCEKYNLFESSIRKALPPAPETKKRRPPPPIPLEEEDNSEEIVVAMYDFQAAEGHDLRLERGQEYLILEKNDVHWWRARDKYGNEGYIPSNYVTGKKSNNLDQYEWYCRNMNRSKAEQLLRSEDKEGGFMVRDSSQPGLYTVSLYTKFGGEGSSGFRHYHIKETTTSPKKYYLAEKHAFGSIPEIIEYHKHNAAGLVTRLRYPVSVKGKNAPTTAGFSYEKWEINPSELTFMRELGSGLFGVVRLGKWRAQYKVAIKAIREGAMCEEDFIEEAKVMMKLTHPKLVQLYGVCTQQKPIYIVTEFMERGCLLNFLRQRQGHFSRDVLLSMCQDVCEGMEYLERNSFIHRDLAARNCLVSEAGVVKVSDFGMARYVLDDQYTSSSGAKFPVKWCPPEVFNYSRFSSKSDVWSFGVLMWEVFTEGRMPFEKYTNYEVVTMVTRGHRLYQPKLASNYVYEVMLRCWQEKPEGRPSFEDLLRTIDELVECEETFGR
Briefly: TEC kinase profiling (BTK protocol). The experiment is classed as biochemical. The following applies: for TEC @ 0.3 μM (% Inh): 0.3 μM compound; for IC50: 10 dose IC50. How it is done:
(§1) BTK assay: In vitro profiling protein kinases was performed using the “HotSpot” assay platform. Briefly, specific kinase/substrate pairs along with required cofactors were prepared in reaction buffer. Compounds were prepared as 10 mM stock solutions in DMSO. Compounds were delivered into the reaction, followed 15-20 minutes later by addition of a mixture of ATP (Sigma, St. Louis Mo.) and ^33P ATP (Perkin Elmer, Waltham Mass.) to a final concentration of 10 μM. […] IC50 values and curve fits were obtained using Prism (GraphPad Software). Buffer Conditions: 20 mM Hepes (pH 7.5), 10 mM MgCl2, 1 mM EGTA, 0.02% Brij35, 0.02 mg/mL BSA, 0.1 mM Na3VO4, 2 mM DTT, 1% DMSO.

The next experiment deals with T2, ITK (Homo sapiens, UniProt Q08881).
T2 construct: purchased Reaction Biology Corporation
T2 sequence (Q08881 1-620): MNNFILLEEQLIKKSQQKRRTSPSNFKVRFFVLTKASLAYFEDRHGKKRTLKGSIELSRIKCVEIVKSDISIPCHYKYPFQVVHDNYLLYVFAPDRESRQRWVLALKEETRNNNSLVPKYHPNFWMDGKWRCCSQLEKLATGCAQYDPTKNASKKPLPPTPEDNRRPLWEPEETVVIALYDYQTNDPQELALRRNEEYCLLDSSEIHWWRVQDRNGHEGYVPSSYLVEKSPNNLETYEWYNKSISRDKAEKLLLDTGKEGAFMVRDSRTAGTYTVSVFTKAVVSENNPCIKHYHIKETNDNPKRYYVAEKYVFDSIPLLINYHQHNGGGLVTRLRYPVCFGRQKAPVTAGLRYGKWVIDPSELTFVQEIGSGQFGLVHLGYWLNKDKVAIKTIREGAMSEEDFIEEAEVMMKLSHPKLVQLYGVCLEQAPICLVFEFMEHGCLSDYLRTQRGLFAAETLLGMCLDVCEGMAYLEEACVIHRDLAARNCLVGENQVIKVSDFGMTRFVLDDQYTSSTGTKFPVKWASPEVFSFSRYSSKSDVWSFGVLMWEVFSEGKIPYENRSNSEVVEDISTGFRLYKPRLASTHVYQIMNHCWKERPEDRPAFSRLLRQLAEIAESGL
Briefly: ITK kinase profiling (BTK protocol). In kind it is biochemical. As to conditions: for ITK @ 0.3 μM (% Inh): 0.3 μM compound; for IC50: 10 dose IC50. On the procedure: as §1

A further experiment has as its target T3, PI3Kβ (Homo sapiens, UniProt P42338).
T3 construct: purchased Reaction Biology Corporation
Briefly: PI3Kβ isoform profiling (PI3Kδ protocol). The experiment is classed as biochemical. The following applies: for PI3Kβ @ 0.3 μM (% Inh): 0.3 μM compound; for IC50: 10 dose IC50. The source says: PI3Kδ assay: The PIP3 product is detected by displacement of biotin-PIP3 from an energy transfer complex consisting of Europium labeled anti-GST monoclonal antibody, a GST-tagged pleckstrin homology (PH) domain, biotinylated PIP3 and Streptavidin-Allophycocyanin (APC). Excitation of Europium in the complex results in an energy transfer to the APC and a fluorescent emission at 665 nm. The PIP3 product formed by PI 3-Kinase(h) activity displaces biotin-PIP3 from the complex resulting in a loss of energy transfer and thus a decrease in signal. This is a 3-step reaction: First, the kinase reaction with PIP2 substrate is carried out in the presence of ATP (10 μM), and the reaction is quenched with stop Solution, and then finally detect by adding Detection Mixture followed by incubation (10 min). Reaction procedure: 1) Prepare substrate in freshly prepared Reaction Buffer. 2) Deliver kinase into the substrate solution and gently mix. 3) Deliver compounds in 100% DMSO (1 μM) into the kinase reaction mixture by Acoustic technology (Echo550; nanoliter range), incubate for 10 min at RT. 4) Deliver ATP into the reaction mixture to initiate the reaction. 5) Incubate for 30 min at 30° C. 6) Quench the reaction with Stop Solution. 7) Add Detection Mixture, and incubate for overnight. 8) Measure HTRF: Ex=320 nm, ratio of Em=615 nm and Em=665 nm. The emission ratio is converted into μM PIP3 production based on PIP3 standard curves. The nonlinear regression to obtain the standard curve and IC50 values are performed using Graphpad Prism software. Assay Buffer: HEPES 50 mM (pH7.0), NaN3 0.02%, BSA 0.01%, Orthovanadate 0.1 mM, 1% DMSO. Detection buffer: HEPES 10 mM (pH7.0), BSA 0.02%, KF 0.16 M, EDTA 4 mM. Substrate: 10 μM PIP2 substrate (PI(4,5)P2).
Compounds of the invention were profiled in a 10 dose IC50 panel against PI3Kα, PI3Kβ, and PI3Kγ kinases, provided by Reaction Biology Corporation, applied to the PI3Kδ protocol provided in Example B1.

The subject of another experiment is SUDHL6 cells. Description: Cell anti-proliferation assay ([3H] thymidine). The experiment is classed as cell-based. As to conditions: Homo sapiens, SU-DHL-6, IC50 range. On the procedure:
Compounds of the invention were profiled in a B-lymphocyte anti-proliferation assay using SUDHL6 cells. On Day 0, SUDHL cells (7,500) were plated in RPMI media with FBS medium in a 96-well plate. On Day 1, Compounds of the invention were charged on top of the plated cells with a 1% DMSO final concentration. On Day 3, [^3H] Thymidine was added at 100 nCi/well. On Day 4, the cells were harvested using a cell harvester on a GF/C filter mat and dried in a hot air oven. Cell readout was obtained using a scintillation counter, and the activity of the compound was determined as an IC50 value.

In general, IC50 refers to the point on the concentration scale where inhibition reaches its midpoint.

T3 sequence (P42338 whole entry): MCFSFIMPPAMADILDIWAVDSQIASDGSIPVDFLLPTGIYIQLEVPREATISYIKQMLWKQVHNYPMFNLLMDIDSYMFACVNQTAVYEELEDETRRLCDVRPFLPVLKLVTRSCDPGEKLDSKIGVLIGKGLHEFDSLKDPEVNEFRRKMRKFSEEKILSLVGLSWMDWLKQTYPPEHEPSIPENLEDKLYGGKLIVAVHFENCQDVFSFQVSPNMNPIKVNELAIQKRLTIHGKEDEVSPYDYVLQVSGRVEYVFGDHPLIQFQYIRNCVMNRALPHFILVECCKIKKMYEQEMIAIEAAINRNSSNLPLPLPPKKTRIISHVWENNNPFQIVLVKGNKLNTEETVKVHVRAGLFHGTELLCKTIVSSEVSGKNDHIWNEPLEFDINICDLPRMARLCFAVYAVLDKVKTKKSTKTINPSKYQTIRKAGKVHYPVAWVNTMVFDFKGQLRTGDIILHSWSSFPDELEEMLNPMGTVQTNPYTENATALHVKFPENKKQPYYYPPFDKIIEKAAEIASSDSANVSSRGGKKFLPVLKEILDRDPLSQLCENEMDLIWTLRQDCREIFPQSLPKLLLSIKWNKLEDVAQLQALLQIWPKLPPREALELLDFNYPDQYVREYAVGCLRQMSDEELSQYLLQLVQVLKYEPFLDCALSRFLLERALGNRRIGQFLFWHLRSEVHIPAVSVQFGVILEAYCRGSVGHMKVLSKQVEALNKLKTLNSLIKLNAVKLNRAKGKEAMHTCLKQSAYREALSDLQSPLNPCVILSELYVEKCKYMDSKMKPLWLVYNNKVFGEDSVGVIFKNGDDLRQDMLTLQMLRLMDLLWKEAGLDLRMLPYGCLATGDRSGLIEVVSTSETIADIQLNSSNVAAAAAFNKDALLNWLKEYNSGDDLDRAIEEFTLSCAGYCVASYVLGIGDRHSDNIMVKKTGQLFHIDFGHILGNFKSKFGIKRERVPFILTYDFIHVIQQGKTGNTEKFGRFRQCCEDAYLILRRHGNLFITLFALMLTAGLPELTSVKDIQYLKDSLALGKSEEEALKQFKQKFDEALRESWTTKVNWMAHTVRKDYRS
T3 sequence (P27986 whole entry partner): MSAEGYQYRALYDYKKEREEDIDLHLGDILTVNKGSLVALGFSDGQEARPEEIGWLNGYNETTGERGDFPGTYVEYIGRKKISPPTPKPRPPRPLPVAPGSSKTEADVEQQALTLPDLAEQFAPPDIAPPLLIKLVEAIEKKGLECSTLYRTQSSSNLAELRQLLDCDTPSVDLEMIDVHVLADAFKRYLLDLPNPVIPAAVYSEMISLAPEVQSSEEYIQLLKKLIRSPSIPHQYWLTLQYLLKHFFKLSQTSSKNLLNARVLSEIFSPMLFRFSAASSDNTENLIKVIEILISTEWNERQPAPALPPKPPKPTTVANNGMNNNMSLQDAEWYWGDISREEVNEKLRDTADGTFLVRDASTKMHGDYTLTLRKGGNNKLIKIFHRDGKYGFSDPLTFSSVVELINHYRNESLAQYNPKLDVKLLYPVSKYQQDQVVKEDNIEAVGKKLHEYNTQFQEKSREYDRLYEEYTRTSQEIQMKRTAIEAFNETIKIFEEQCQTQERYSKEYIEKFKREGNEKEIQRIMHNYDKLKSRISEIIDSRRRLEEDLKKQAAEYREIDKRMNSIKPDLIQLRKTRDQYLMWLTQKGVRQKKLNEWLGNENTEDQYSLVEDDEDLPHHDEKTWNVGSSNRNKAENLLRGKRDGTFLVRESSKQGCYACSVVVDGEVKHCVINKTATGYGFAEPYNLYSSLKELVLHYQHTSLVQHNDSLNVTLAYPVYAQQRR

As for `Nc1ncnc2c1c(-c1ccc(Cl)c(O)c1)cn2C1Cc2ccccc2C1` [Compound No. 93, 5-[4-amino-7-(2,3-dihydro-1H-inden-2-yl)-7H-pyrrolo[2,3-d]pyrimidin-5-yl]-2-chlorophenol], the “TEC @ 0.3 μM (% Inh)” value on TEC came out at 106.37 % Inh. Moreover, the “ITK @ 0.3 μM (% Inh)” value at ITK came to 108.85 % Inh. In addition, at PI3Kβ, the “PI3Kβ @ 0.3 μM (% Inh)” value came out at 47.09 % Inh.

Consider `Nc1ncnc2c1c(-c1ccc(Cl)c(O)c1F)nn2C1Cc2ccccc2C1` [Compound No. 100, 3-[4-amino-1-(2,3-dihydro-1H-inden-2-yl)-1H-pyrazolo[3,4-d]pyrimidin-3-yl]-6-chloro-2-fluorophenol], for which the “TEC @ 0.3 μM (% Inh)” value on TEC is recorded as 102.76 % Inh. The “ITK @ 0.3 μM (% Inh)” value on ITK is 112.3 % Inh. On PI3Kβ, the “PI3Kβ @ 0.3 μM (% Inh)” value was 39.8 % Inh.

With `Nc1ncnc2c1c(-c1cc(O)c(F)c(F)c1)cn2C1Cc2ccccc2C1` [Compound No. 101, 5-[4-amino-7-(2,3-dihydro-1H-inden-2-yl)-7H-pyrrolo[2,3-d]pyrimidin-5-yl]-2,3-difluorophenol], the “TEC @ 0.3 μM (% Inh)” value on TEC was 91.2 % Inh. The “ITK @ 0.3 μM (% Inh)” value at ITK is given as −2.77 % Inh. For the same compound, on PI3Kβ, the “PI3Kβ @ 0.3 μM (% Inh)” value is 41.93 % Inh.

In the case of `Nc1ncnc2c1c(-c1cc(O)c(F)c(C(F)(F)F)c1)nn2C1Cc2ccccc2C1` [Compound No. 102, 5-[4-amino-1-(2,3-dihydro-1H-inden-2-yl)-1H-pyrazolo[3,4-d]pyrimidin-3-yl]-2-fluoro-3-(trifluoromethyl)phenol], the “TEC @ 0.3 μM (% Inh)” value at TEC is recorded as −3.89 % Inh. For the same compound, the “ITK @ 0.3 μM (% Inh)” value at ITK was −5.59 % Inh. For the same compound, the “PI3Kβ @ 0.3 μM (% Inh)” value on PI3Kβ turned out to be 67.67 % Inh.

`Nc1ncnc2c1c(-c1cc(O)c(Cl)c(Cl)c1)cn2C1Cc2ccccc2C1` [Compound No. 107, 5-[4-amino-7-(2,3-dihydro-1H-inden-2-yl)-7H-pyrrolo[2,3-d]pyrimidin-5-yl]-2,3-dichlorophenol]: the “TEC @ 0.3 μM (% Inh)” value at TEC was 87.72 % Inh. The “ITK @ 0.3 μM (% Inh)” value at ITK is given as −5.41 % Inh. Besides, on PI3Kβ, the “PI3Kβ @ 0.3 μM (% Inh)” value came to 49.12 % Inh.

For the compound `Nc1ncnc2c1c(-c1cc(O)cc(F)c1)nn2C1Cc2ccccc2C1` [compound 3, 3-(4-amino-1-(2,3-dihydro-1H-inden-2-yl)-1H-pyrazolo[3,4-d]pyrimidin-3-yl)-5-fluorophenol], the IC50 against TEC is 0.182 µM; against ITK, 46.9 µM; in the experiment on SUDHL6 cells, 1 to 10 µM; at PI3Kβ, 0.0908 µM.

In the case of `Nc1ncnc2c1c(-c1cc(O)cc(F)c1)nn2C1CCc2ccccc2C1` (centres unmarked) [compound 6, 3-(4-amino-1-(1,2,3,4-tetrahydronaphthalen-2-yl)-1H-pyrazolo[3,4-d]pyrimidin-3-yl)-5-fluorophenol], the IC50 against TEC was 0.28 µM; against ITK it was 16.4 µM; in the experiment with SUDHL6 cells, 1 to 10 µM; against PI3Kβ it was 0.105 µM.

In the case of `C=CC(=O)N1CC(n2nc(-c3cc(O)cc(F)c3)c3c(N)ncnc32)Cc2cc(C)ccc21` (centres unmarked) [compound 31, 1-(3-(4-amino-3-(3-fluoro-5-hydroxyphenyl)-1H-pyrazolo[3,4-d]pyrimidin-1-yl)-6-methyl-3,4-dihydroquinolin-1(2H)-yl)prop-2-en-1-one], on TEC, the “TEC @ 0.3 μM (% Inh)” value was found to be 57.08 % Inh and the IC50 was 24.3 µM. For the same compound, on ITK, the “ITK @ 0.3 μM (% Inh)” value is listed as 17.1 % Inh and the IC50 is more than 100 µM. At PI3Kβ, the “PI3Kβ @ 0.3 μM (% Inh)” value was 52.63 % Inh and the IC50 amounted to 0.927 µM.

With `Nc1ncnc2c1c(-c1cc(O)cc(F)c1)nn2C1Cc2ccc(F)cc2C1` (centres unmarked) [compound 57, 3-[4-amino-1-(5-fluoro-2,3-dihydro-1H-inden-2-yl)-1H-pyrazolo[3,4-d]pyrimidin-3-yl]-5-fluorophenol], the “TEC @ 0.3 μM (% Inh)” value at TEC is 40.21 % Inh. At ITK, the “ITK @ 0.3 μM (% Inh)” value is 5.31 % Inh. The “PI3Kβ @ 0.3 μM (% Inh)” value at PI3Kβ is listed as 60.98 % Inh.

As for `Nc1ncnc2c1c(-c1cc(O)c(F)c(Cl)c1)cn2C1Cc2ccccc2C1` [compound 110, 5-[4-amino-7-(2,3-dihydro-1H-inden-2-yl)-7H-pyrrolo[2,3-d]pyrimidin-5-yl]-3-chloro-2-fluorophenol], the “TEC @ 0.3 μM (% Inh)” value at TEC was determined as 89.37 % Inh. The “ITK @ 0.3 μM (% Inh)” value at ITK is −3.49 % Inh. Moreover, the “PI3Kβ @ 0.3 μM (% Inh)” value at PI3Kβ was found to be 50.12 % Inh.

With `N#Cc1cc(-c2cn(C3Cc4ccccc4C3)c3ncnc(N)c23)cc(O)c1F` [compound 115, 5-[4-amino-7-(2,3-dihydro-1H-inden-2-yl)-7H-pyrrolo[2,3-d]pyrimidin-5-yl]-2-fluoro-3-hydroxybenzonitrile], the “TEC @ 0.3 μM (% Inh)” value at TEC amounted to 48.29 % Inh. Also, the “ITK @ 0.3 μM (% Inh)” value at ITK is on record as −9.43 % Inh. For the same compound, at PI3Kβ, the “PI3Kβ @ 0.3 μM (% Inh)” value is on record as 68.12 % Inh.
